Laboratory results: PMC8457735, “Synthesis, Kinetics, Binding Conformations and Structure-activity Relationship of Potent Tyrosinase Inhibitors: Aralkylated 2-aminothiazole-ethyltriazole Hybrids” (Iranian Journal of Pharmaceutical Research : IJPR, 2021)
Entries after “also recorded” stand apart in the source; their conditions may differ.

Assays:
mushroom tyrosinase = mushroom tyrosinase (Agaricus bisporus, UniProt C7FF04); test: Kinetic analysis of tyrosinase inhibition (Lineweaver-Burk and secondary plots); format: biochemical
mushroom tyrosinase, sequence (C7FF04 1-392): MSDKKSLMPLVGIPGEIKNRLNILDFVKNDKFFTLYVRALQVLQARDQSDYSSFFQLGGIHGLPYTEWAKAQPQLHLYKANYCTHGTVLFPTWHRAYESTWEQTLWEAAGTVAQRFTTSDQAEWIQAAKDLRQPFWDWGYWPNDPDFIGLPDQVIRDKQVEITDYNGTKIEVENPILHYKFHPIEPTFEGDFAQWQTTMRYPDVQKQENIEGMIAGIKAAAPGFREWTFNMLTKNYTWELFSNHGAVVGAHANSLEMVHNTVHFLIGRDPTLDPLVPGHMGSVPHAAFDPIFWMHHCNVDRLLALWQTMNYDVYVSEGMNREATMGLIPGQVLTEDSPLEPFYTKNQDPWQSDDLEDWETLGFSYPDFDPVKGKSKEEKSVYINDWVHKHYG
Description: A series of experiments were performed to determine the inhibition kinetics of 7g, following the already reported methods ([54]). The concentrations for 7g were 0.00, 0.0018, 0.0036 and 0.0072 µM. Substrate L-DOPA concentrations were between 0.0625 to 2 mM in all kinetic studies. Pre-incubation and measurement time was the same as discussed in the mushroom tyrosinase inhibition assay protocol. Maximal initial velocity was determined from the initial linear portion of absorbance up to five minutes after the addition of enzyme at the 30s interval. The inhibition type of the enzyme was assayed by Lineweaver-Burk plots of the inverse of velocities (1/V) versus the inverse of substrate concentration 1/[L-DOPA] mM^-1.

[1] = Free radical scavenging assay (DPPH); conditions: compound concentration 100 µg/mL
Description: Radical scavenging activity was determined by modifying the already reported method by 2, 2-diphenyl-1 picrylhydrazyl (DPPH) assay ([55]). The assay solution consisted of 100 µL of DPPH (150 µM), 20 µL of increasing concentration of test compounds, and the volume was adjusted to 200 µL in each well with CH3OH. After that, the assay reaction was then incubated for 30 minutes at room temperature. Ascorbic acid (Vitamin C) was used as a reference inhibitor. The assay measurements were carried out using a microplate reader (OPTI Max, Tunable) at 517 nm. The reaction rates were compared, and the percent inhibition caused by tested inhibitors was calculated. All experiments were repeated thrice.

Row | melting point [°C] | Structure (SMILES) | radical scavenging activity [1] [%] | also measured
1 | 150 to 151 | CCn1c(Cc2csc(N)n2)nnc1SCc1ccc(Br)cc1 [Compound 7k, -({5-[(4-Bromobenzyl)sulfanyl]-4-ethyl-4H-1,2,4-triazol-3-yl}methyl)-1,3-thiazol-2-amine] | – | –
2 | – | CCn1c(Cc2csc(N)n2)nnc1SCc1ccc(Cl)cc1Cl [Compound 7g, 4-({5-[(2,4-Dichlorobenzyl)sulfanyl]-4-ethyl-4H-1,2,4-triazol-3-yl}methyl)-1,3-thiazol-2-amine] | 24 | Vmax (mushroom tyrosinase; L-DOPA activity in presence of 0.0018 µM 7g): 6.676 × 10^-5 ΔA/s; Vmax (mushroom tyrosinase; L-DOPA activity in presence of 0.0036 µM 7g): 4.712 × 10^-5 ΔA/s; Vmax (mushroom tyrosinase; L-DOPA activity in presence of 0.0072 µM 7g): 4.223 × 10^-5 ΔA/s; Inhibition Type (mushroom tyrosinase; Lineweaver-Burk plots, substrate L-DOPA 0.0625-2 mM): non-competitively; also recorded: Non-Competitive
3 | 108 to 109 | CCn1c(Cc2csc(N)n2)nnc1SCc1ccccc1Br [Compound 7i, 4-({5-[(2-Bromobenzyl)sulfanyl]-4-ethyl-4H-1,2,4-triazol-3-yl}methyl)-1,3-thiazol-2-amine] | – | –
4 | – | CCn1c(Cc2csc(N)n2)nnc1SCc1ccc(Cl)c(Cl)c1 [Compound 7h, 4-({5-[(3,4-Dichlorobenzyl)sulfanyl]-4-ethyl-4H-1,2,4-triazol-3-yl}methyl)-1,3-thiazol-2-amine] | 21 | –
